According to ChEMBL document CHEMBL1128206, “Substituted 2-azaspiro[5.3]nonan-1-ones as potent cholesterol absorption inhibitors: defining a binding conformation for SCH 48461” (1995):

How the values were obtained:
[1] = Compound was evaluated in vivo for the reduction of liver cholesterol ester level at the rate 5 mpk; format: functional
[2] = Compound was evaluated in vivo for the reduction of liver cholesterol ester level at the rate 50 mpk; format: functional
[3] = Compound was evaluated in vivo for the reduction of liver cholesterol ester level at the rate 10 mpk; format: functional
Cricetinae gen. sp. [4] = assay: Effective concentration was evaluated when liver cholesterol ester level reduction was 87%; format: functional, Cricetulus griseus
Cricetinae gen. sp. [5] = assay: Effective concentration was evaluated when liver cholesterol ester level reduction was 17%; format: functional, Cricetulus griseus

Structure (SMILES)	L/CE [1]	L/CE [2]	L/CE [3]	also measured
COc1ccc([C@@H]2[C@@H](CCCc3ccccc3)C(=O)N2c2ccc(OC)cc2)cc1 [SCH-48461]	66%	0%		
COc1ccc([C@H]2[C@@H](CCCc3ccccc3)C(=O)N2c2ccc(OC)cc2)cc1			0%	
COc1ccc([C@@H]2[C@H](CCCc3ccccc3)C(=O)N2c2ccc(OC)cc2)cc1		0%	69%	
COc1ccc([C@H]2[C@H](CCCc3ccccc3)C(=O)N2c2ccc(OC)cc2)cc1	0%			
COc1ccc([C@@H]2N(c3ccc(OC)cc3)C(=O)C23CCC(c2ccccc2)CC3)cc1 (stereo partly drawn)				ED50 (Cricetinae gen. sp. [4]): > 50 mg/kg; ED50 (Cricetinae gen. sp. [5]): 3 mg/kg
